Test results reported in US20070218004A1, “Method of Identifying Therapeutic Compounds Which Can Be Used for the Treatment and/or Prevention of Infections and Diseases Caused by Human Herpesviruses” (priority 2005, published 2007).
Where two headings read alike, the source gives them in different places.

Experiments:
[1] = mice; cited from earlier work
[2] = rabbits; cited from earlier work
HSV-1 = assay: Acyclovir ad libitum in drink, vertical mother-progeny transmission model (Example 3); type: in vivo, mice; conditions: acyclovir in drinking water ad libitum, high dose (final daily dose 1.50 mg), from the day of the vaginal plug
Method: Assuming that a mouse drinks about 3 ml a day, 2 working dilutions ([…] so that the final daily dose was 0.75 mg, and […] so that the final daily dose was 1.50 mg) were used.

[3] = test system: herpes simplex virus type 1 (HSV-1) of the KOS strain; type: in vivo, mice of the C57B1/6 lineage
Method: All the animals included in the experimental process were 14-week old female mice of the C57B1/6 lineage. Between two and three adult mice were used per analysis group and between 13 and 25 neonates, depending on the availability of animals. […] All the animals went through a quarantine period and were treated with strict precautions against contamination during inoculation and dissection. The animals were intraperitoneally infected with a dose 10^6 pfu of herpes simplex virus type 1 (HSV-1) of the KOS strain (provided by el Dr. L. Carrasco, Centro de Biología Molecular Severo Ochoa, Universidad Autónoma of Madrid). […] The first group of mice was not given any treatment. […] Therefore the antiviral concentration administered per dose and mouse was 0.25 mg (10 mg/kg per mouse, far from the toxicity limit of 80 mg/kg cited above), with a total daily dose of 0.75 mg/day.
The dissected organs in the adult animals were the following: blood, ovaries, adrenal gland, spinal cord, brain, cerebellum and trigeminal ganglia. The entire brain was separated into three rough regions: midbrain, ventricles and cerebral cortex. In the neonates, the dissected organs were blood, spinal cord and encephalon. DNA was extracted using conventional methods (NucleoSpin®, Cat. K3053-2, ClonTech, USA). The viral load of the different organs was analyzed by means of quantitative PCR. […] Primers specific for the sequence of the viral polymerase (pol) gene were used to detect the virus (SEQ. ID. NO: 3 and SEQ. ID. NO: 4) (120 bp amplicon). The PCR conditions were one cycle of 95° C. for 10 minutes, followed by 45 cycles at 95° C. for 30 seconds, 55° C. (for β-actin) or 60° C. (for viral polymerase) for 30 seconds, and a last cycle of 72° C. for 40 seconds. The virus concentration range used for optimizing the quantitative PCR standard curve was expressed as plaque forming units (pfu). For calibrating the β-actin gene, nanograms were used as the unit of this endogenous gene. The identity of the amplified products was checked by analysis of the denaturation curves, by gel electrophoresis and restriction analysis.

[4] = rats; cited from earlier work

SMILES: Nc1nc2c(ncn2COCCO)c(=O)[nH]1 [acyclovir]
- teratogenicity / embryotoxicity [1]: non-teratogenic or embryotoxic
- teratogenicity / embryotoxicity [2]: non-teratogenic or embryotoxic
- survival of the animals (HSV-1): higher
- viral loads both in the mothers and in the progeny (quantitative PCR) ([3]; daily dose of 0.75 mg, both administration routes (oral and subcutaneous), FIG. 7): significant reduction
- viral levels in all the analyzed organs of the descendants ([3]; oral acyclovir administered to the mothers, 0.75 mg/day): almost complete elimination
- mortality of neonates ([3]; oral acyclovir to infected mothers, 0.25 mg per dose three times a day (0.75 mg/day), none of the 17 animals): no mortality
- virus levels in blood and in the trigeminal ganglia of the mothers ([3]; oral acyclovir, 0.75 mg/day): virtually undetectable
- mortality rate of neonates ([3]; subcutaneous acyclovir to infected mothers, 0.25 mg per dose three times a day (0.75 mg/day), from five days before crossbreeding until birth, 1 out of 25): 4.0%
- levels of the virus in all the analyzed organs of the mother and in the progeny's CNS ([3]; subcutaneous acyclovir, 0.75 mg/day): considerably lower levels
- teratogenicity / embryotoxicity [4]: non-teratogenic or embryotoxic
